Data reported in US10105411B2, “Compositions and methods for modulating AT2R activity” (Novopyxis, Inc., priority 2014, dated 2018).
“Also recorded” adds a separate entry of the source. Where no end group is shown, it is not given here.

Tests used:
[1] = tested on: mouse HL-1 cardiomyocytes; test: Cell index (CI) cell survival, Xcelligence Real-Time Cell Analyzer, HL-1 cells; assay type: cell-based; conditions: for increase in cell index (CI): serum starved HL-1 cells
Protocol: (§1) Thus, an NP-6AK agonist comprising the sequence Lys-Pro-Leu-Lys-Pro-Trp (SEQ ID NO. 2) promoted cell survival across mouse HL-1 cardiomyocytes and human smooth vascular muscle cells by acting through AT2R activation. Cell survival was assessed by measurement of cell index (CI) using a Xcelligence™ Real-Time Cell Analyzer (Westburg B V, Leusden, N L) to quantitatively determine the effect of different treatments on cell survival, adhesion, and proliferation. […] CGP42112A and the NP-6AK agonist (300 nM) increased CI of serum starved HL-1 cells in the order CGP42112A (≥14%), NP-6AK (≥25%). Increase in CI is a direct effect of AT2R activation. This was verified by addition of an AT2R antagonist, PD123319 (Sigma-Aldrich, Co. LLC, St. Louis, Mo.). In the presence of this antagonist, the cell survival otherwise observed using the NP-6AK agonist was not present.

MCL-1 [2] = test: MCL-1 expression in HL-1 cardiomyocytes; assay type: cell-based, mouse; conditions: for effect of AT2R antagonist on NP-6AK-mediated MCL-1 upregulation: antagonist with NP-6AK agonist; for MCL-1 expression (in words): female mouse HL-1 cardiomyocytes, FIG. 1A
Description: (§2) Cells treated with the NP-6AK agonist generated higher MCL-1 upregulation relative to those treated with a partial agonist such as CGP42112A.

MCL-1 [3] = test: MCL-1 expression in human vascular smooth muscle cells (CAVSMCs); assay type: cell-based; conditions: for effect of AT2R antagonist on NP-6AK-mediated MCL-1 upregulation: antagonist with NP-6AK agonist; for MCL-1 expression (in words): human CAVSMCs, FIG. 1B
Description: as §2

PC-12 cells = test: Survival/viability of serum-starved PC-12 cells (MTS cell proliferation assay); assay type: cell-based
Protocol: (§3) Serum-starvation reduced survival of SH-SY5Y cells and PC-12 cells. […] Treatment of this cell line with 300 nM of NP-6AK agonist led to increased cell viability by over 30% relative to treatment with native ligand of AT2R Ang II (300 nM). […] AT2R activation by NP-6AK agonist promotes cell survival whereas AT2R activation by other ligands are harmful to it.

[4] = tested on: human smooth vascular muscle cells; test: Cell index (CI) cell survival, Xcelligence Real-Time Cell Analyzer, human smooth vascular muscle cells; assay type: cell-based
Protocol: as §1

MCL-1 [5] = test: MCL-1 expression in SH-SY5Y cells (immunofluorescence staining); assay type: cell-based
Description: The SH-SY5Y cell line is a neuronal cell line with both dopaminergic and adrenergic receptors.

SH-SY5Y cells [6] = test: Neurite elongation in SH-SY5Y cells; assay type: cell-based; conditions: FIG. 3A
SH-SY5Y cells [7] = test: Survival of serum-starved SH-SY5Y cells (MTS cell proliferation assay); assay type: cell-based; conditions: serum starvation
Protocol: as §3

[8] = tested on: primary murine embryonic cortical neurons; test: Neuroprotection of primary cortical neurons under nutrient deprivation; assay type: cell-based; conditions: 300 nm agonist; glucose-free Locke's medium; 14 DIV; p<0.05
Protocol: For nutrient deprivation, primary cortical neurons (14 DIV) were incubated in glucose-free Locke's medium with or without […] NP-6AK agonist.
Ex vivo neurons were obtained and treated with an NP-6AK agonist in different conditions to assess neuroprotective properties. Normal primary murine embryonic cortical neurons in culture (14 days in vitro) were challenged with nutrient deprivation by incubation in glucose-free Locke's medium (Schnapf et al. (1990)). These cultures were then supplemented with 300 nM NP-6AK agonist or no NP-6AK agonist.

Zucker Obese (ZO) rats = test: Zucker Obese rat diabetic/cardiovascular model, 2 weeks subcutaneous treatment; assay type: in vivo
Protocol: Zucker Obese (ZO) rats (Charles River Laboratories, Inc., Wilmington, Mass.), a diabetic animal model displaying signs of cardiovascular disease were treated for 2 weeks (dose of 0.9 mg/kg/day) via subcutaneous injection with an NP-6AK agonist and assessed for several markers of cardiovascular health including blood markers and structural parameters of the heart. Controls were ZO rats that received saline.

[9] = 0.9 mg/kg/day s.c., vs saline ZO rats

Cc1cc(Cn2cnc3c2C[C@@H](C(=O)O)N(C(=O)C(c2ccccc2)c2ccccc2)C3)ccc1N(C)C [PD123319] was tested, and the “cell survival otherwise observed using the NP-6AK agonist, in presence of the AT2R antagonist” value ([1]; antagonist added to NP-6AK agonist treatment) was “not present”, the “effect of AT2R antagonist on NP-6AK-mediated MCL-1 upregulation” value (shortened to “effect of AT2R antagonist”) (MCL-1 [2]) was “MCL-1 upregulation was not observed” and the “effect of AT2R antagonist” value (MCL-1 [2]; listed as PD) was “prevents NP-6AK-mediated up regulation of MCL-1”. For the same compound, the “effect of AT2R antagonist” value (MCL-1 [3]) was “MCL-1 upregulation was not observed”, the “effect of AT2R antagonist” value (MCL-1 [3]; listed as PD) was “prevents NP-6AK-mediated up regulation of MCL-1” and the “protective effects of the NP-6AK agonist when treated with AT2R antagonist” value (PC-12 cells; PC-12 cells) was “the protective effects of the NP-6AK agonist were lost”.

AngII: native ligand of AT2R was tested, and the “cell survival relative to cells treated with AT2R antagonist PD123319” value (PC-12 cells; MTS assay) was “more detrimental”.

With CGP42112A the “increase in cell index (CI)” value ([1]; 300 nM) was ≥ 14%, the “MCL-1 expression (in words)” value (MCL-1 [2]) was “unable to increase MCL-1” and the “MCL-1 expression (in words)” value (MCL-1 [3]) was “unable to increase MCL-1”. For the same compound, the “cell survival relative to cells treated with AT2R antagonist PD123319” value (PC-12 cells; MTS assay) was “more detrimental”.

“KPLKPW [NP-6AK agonist, AT2R agonist hexapeptide of the NP-6AK class]” was tested, and the “survival and proliferation compared with CGP42112A (300 nM)” value ([1]; 300 nM, cell index) was “significantly better survival and more proliferation”, the “increase in cell index (CI)” value ([1]; 300 nM) was ≥ 25% and the “survival and proliferation compared with CGP42112A (300 nM)” value [4] was “significantly better survival and more proliferation”. The “higher MCL-1 expression” value (MCL-1 [2]; 300 nM, cardiomyocytes, FIG. 1) was 45%, the “MCL-1 expression (in words)” value (MCL-1 [2]) was “increases MCL-1 expression” and the “higher MCL-1 expression” value (MCL-1 [3]; 300 nM, human smooth vascular muscle cells, FIG. 1) was 22%. The “MCL-1 expression (in words)” value (MCL-1 [3]) was “increases MCL-1 expression”, the “increase in MCL-1 expression” value (MCL-1 [5]; 300 nM, agonist alone, 24 hours, FIG. 2) was 2 fold and the “MCL-1 expression after treatment with Rapamycin” value (MCL-1 [5]; agonist added after Rapamycin, FIG. 3B) was “reverses rapamycin-mediated suppression of MCL-1 expression; also recorded: able to recover MCL-1 expression”. For the same compound, the neurite elongation (SH-SY5Y cells [6]) was “promotes neurite elongation”, the survival rate (SH-SY5Y cells [7]) was “higher survival rate” and the “increased survival relative to treatment with 300 nM CGP42112A” value (PC-12 cells; MTS assay) was “over 70%”. The survival rate (PC-12 cells; serum starvation) was “higher survival rate”, the “increased activity compared with negative controls” value [8] was 60% and the “increased HDL on average” value (Zucker Obese (ZO) rats; [9]) was 12%. For the same compound, the “reduced triglycerides (fasting plasma)” value (Zucker Obese (ZO) rats; [9]) was ~50%, the “reduced urine N-acetyl-beta-A-glucosaminidase” value (Zucker Obese (ZO) rats; [9]) was ~60% and the reduced urine protein (Zucker Obese (ZO) rats; [9]) was ~68%. For the same compound, the “Echocardiography/Strain analysis E/E” value (Zucker Obese (ZO) rats; male ZO rat, 0.9 mg/kg/day) was 26 ± 2.1, the “Echocardiography/Strain analysis MPI” value (Zucker Obese (ZO) rats; male ZO rat, 0.9 mg/kg/day) was 0.389 ± 0.02 and the “Plasma Profile HDL” value (Zucker Obese (ZO) rats; male ZO rat, 0.9 mg/kg/day) was 73 ± 2.8 mg/dL. For the same compound, the “Plasma Profile Triglycerides” value (Zucker Obese (ZO) rats; male ZO rat, 0.9 mg/kg/day) was 610 ± 109 mg/dL, the “Urine Profile NA6” value (Zucker Obese (ZO) rats; male ZO rat, 0.9 mg/kg/day) was 10.9 ± 1.5 mg/dL and the “Urine Profile Protein” value (Zucker Obese (ZO) rats; male ZO rat, 0.9 mg/kg/day) was 445 ± 86.4 mg/dL. The “Echocardiography/Strain analysis Circumferential Strain” value (Zucker Obese (ZO) rats; male ZO rat, 0.9 mg/kg/day, endocardium, short axis view) was −26.11 ± 2.47.
